Measured values published in patent US20140228440A1, “1-AMINO-ALKYLCYCLOHEXANE DERIVATIVES FOR THE TREATMENT OF INFLAMMATORY SKIN DISEASES” (MERZ PHARMA GmbH & CO. KGaA, priority 2008, published 2014).

Tested on: dermal application sites
Assay: Local tolerability of topical formulation, 14 days of daily dermal treatment
Type: in vivo, Göttingen minipigs
Experimental: The objective of this study is to evaluate the local tolerance of Neramexane mesylate in a topical formulation at different dose levels after 14 days of daily dermal treatment to minipigs.
The study is performed in 4 female Gottingen SPF minipigs (from Ellegaard Gottingen Minipigs Aps). Each animal has 5 application sites (25 cm^2) marked on the back and is dosed for 8 hours each day. Each test site is used for the same test item or placebo throughout the study. The test group is treated with Neramexane mesylate at the following concentrations: 0, 0.5, 2.5, 5.0 and 10.0% (w/w).
Clinical signs are recorded 2-4 hours post start of each treatment and the local dermal reactions (erythema, oedema) are evaluated prior to treatment. Body weight is recorded weekly (and also on Day 1 and at necropsy).

[1] = 0.5, 2.5, 5.0 and 10.0% (w/w), dermal, 14 days

CC1(C)CC(C)(C)CC(C)(N)C1.CS(=O)(=O)O [Neramexane mesylate]
test item related changes (conclusion) (0.5%, 2.5%, 5% and 10% in a topical formulation, 14 Days): no test item related changes | clinical signs and body weight gain [1]: No test item related changes are observed | dermal skin reactions (erythema, oedema) [1]: no test item related dermal skin reactions are observed | gross necropsy [1]: no macroscopic changes are observed | histopathology evaluation of the dermal application sites [1]: no treatment-related macroscopic or microscopic findings
